Source: publication PMC3082371 (Bioorganic & medicinal chemistry letters, 2008)

Molecular target: h5-HT2A receptor (Homo sapiens, UniProt P28223)
Assay: [3H]ketanserin competitive radioligand binding assay
Settings: h5-HT2A Ki relative to parent compound AMDA (Ki = 20 nM)

h5-HT2A receptor, sequence (P28223 whole entry): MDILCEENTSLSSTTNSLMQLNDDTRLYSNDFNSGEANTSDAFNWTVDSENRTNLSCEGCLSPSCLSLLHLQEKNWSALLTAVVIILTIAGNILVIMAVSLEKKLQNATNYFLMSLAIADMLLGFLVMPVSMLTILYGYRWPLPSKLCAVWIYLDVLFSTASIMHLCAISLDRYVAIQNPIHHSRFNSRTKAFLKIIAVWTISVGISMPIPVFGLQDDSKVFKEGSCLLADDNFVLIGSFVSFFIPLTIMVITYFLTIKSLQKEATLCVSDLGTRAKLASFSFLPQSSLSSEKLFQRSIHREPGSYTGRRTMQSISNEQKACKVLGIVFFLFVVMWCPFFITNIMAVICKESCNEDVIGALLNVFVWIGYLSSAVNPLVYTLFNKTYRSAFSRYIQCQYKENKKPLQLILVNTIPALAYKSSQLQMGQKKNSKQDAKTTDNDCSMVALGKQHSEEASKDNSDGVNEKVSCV

SMILES | fold decrease in affinity compared to AMDA [fold]
COc1cccc2c1C(CN)c1ccccc1C2 (stereo not drawn) [Compound 2, 1-methoxy AMDA] | > 50
COc1ccc2c(c1)C(CN)c1ccccc1C2 (stereo not drawn) [Compound 3, 2-methoxy-9-aminomethyl-9,10-dihydroanthracene] | > 50
COc1cccc2c1Cc1ccccc1C2CN (stereo not drawn) [Compound 5, 4-methoxy-AMDA] | 6
